Measurements reported in US8680133B2, “Alkyl indole-3-carbinol-derived antitumor agents” (The Ohio State University Research Foundation, priority 2009, dated 2014).
“Also recorded” adds a separate entry of the source.

What was measured:
[1] = system: HOP-62; assay: NCI60 screening, Non-Small Cell Lung Cancer, HOP-62; assay type: cell-based, human
[2] = system: U251; assay: NCI60 screening, CNS Cancer, U251; assay type: cell-based, human
[3] = system: PC-3 prostate cancer cells; assay: MTT assay of PC-3 cell viability; assay type: cell-based; details: MTT assay, 24, 48 and 72 h; comparison in words
Experimental: Each data point represents means±S.D. (n=6). The activity of OSU-A9M versus its parent compound A9 ([1-(3′-nitro-4′-chlorobenzenesulfonyl)-1H-indol-3-yl]-methanol) and its fluorinated counterpart OSU-A9F ([1-(4-Chloro-3-nitro-benzenesulfonyl)-5-fluoro-1H-indol-3-yl])-methanol in suppressing the cell viability of PC-3 prostate cancer cells was compared using the MTT [3-(4,5-dimethylthiazol-2-yl)-2,5-diphenyl-2H-tetrazolium bromide] assay. Cancer cells and PrECs were grown in 5% FBS-supplemented RPMI 1640 medium or 5% FBS-supplemented prostate epithelial growth medium, respectively, in 96-well, flat-bottomed plates for 24 h, and then exposed to various concentrations of test agents in the same medium for the indicated time intervals. Controls received DMSO vehicle at a concentration equal to that in drug-treated cells. At the end of the treatment, the medium was removed, replaced by 200 μL of 0.5 mg/mL of MTT in the same medium, and cells were incubated in the CO2 incubator at 37° C. for 2 h. Supernatants were removed from the wells, and the reduced MTT dye was solubilized in 200 μL/well DMSO. Absorbance at 570 nm was determined on a plate reader.

[4] = system: EKVX; assay: NCI60 screening, Non-Small Cell Lung Cancer, EKVX; assay type: cell-based, human
[5] = system: K-562; assay: NCI60 screening, Leukemia, K-562; assay type: cell-based, human
[6] = system: MDA-MB-231/ATCC; assay: NCI60 screening, Breast Cancer, MDA-MB-231/ATCC; assay type: cell-based, human
[7] = system: NCl/ADR-RES; assay: NCI60 screening, Ovarian Cancer, NCl/ADR-RES; assay type: cell-based, human
[8] = system: LOX IMVI; assay: NCI60 screening, Melanoma, LOX IMVI; assay type: cell-based, human
[9] = system: SN12C; assay: NCI60 screening, Renal Cancer, SN12C; assay type: cell-based, human
[10] = system: OVCAR-3; assay: NCI60 screening, Ovarian Cancer, OVCAR-3; assay type: cell-based, human
[11] = system: TK-10; assay: NCI60 screening, Renal Cancer, TK-10; assay type: cell-based, human
[12] = system: A498; assay: NCI60 screening, Renal Cancer, A498; assay type: cell-based, human
[13] = Homo sapiens, read-out: LC50 (the source's name)

With `Cc1ccc2c(c1)c(CO)cn2S(=O)(=O)c1ccc(Cl)c([N+](=O)[O-])c1` [OSU-A9M, [1-(4-chloro-3-nitro-benzenesulfonyl)-5-methyl-1H-indol-3-yl]-methanol] the TGI [1] was 3.11E−6, the GI50 ([1]; Homo sapiens) was 1740 nM and the CC50 [1, 13] was 5580 nM. The “Percent Growth” value ([1]; Log10 Concentration −4.0) was −99%, the “Percent Growth” value ([1]; Log10 Concentration −5.0) was −100% and the “Percent Growth” value ([1]; Log10 Concentration −6.0) was 97%. The “Percent Growth” value ([1]; Log10 Concentration −7.0) was 95%, the “Percent Growth” value ([1]; Log10 Concentration −8.0) was 98% and the TGI [2] was 2.91E−6. The GI50 ([2]; Homo sapiens, U-251) was 1570 nM, the CC50 ([2]; Homo sapiens, U-251, read-out: LC50 (the source's name)) was 5400 nM and the “Percent Growth” value ([2]; Log10 Concentration −4.0) was −100%. The “Percent Growth” value ([2]; Log10 Concentration −5.0) was −100%, the “Percent Growth” value ([2]; Log10 Concentration −6.0) was 87% and the “Percent Growth” value ([2]; Log10 Concentration −7.0) was 87%. The “Percent Growth” value ([2]; Log10 Concentration −8.0) was 90%, the “In vitro potency against the viability of PC-3 cells” value [3] was “greater than or similar to that of OSU-A9; also recorded: greater potency than OSU-A9 and OSU-A9F” and the TGI [4] was 3.15E−6. For the same compound, the GI50 ([4]; Homo sapiens) was 1600 nM, the CC50 [4, 13] was 6210 nM and the “Percent Growth” value ([4]; Log10 Concentration −4.0) was −93%. The “Percent Growth” value ([4]; Log10 Concentration −5.0) was −85%, the “Percent Growth” value ([4]; Log10 Concentration −6.0) was 85% and the “Percent Growth” value ([4]; Log10 Concentration −7.0) was 99%. For the same compound, the “Percent Growth” value ([4]; Log10 Concentration −8.0) was 91%, the TGI [5] was 3.03E−6 and the GI50 ([5]; Homo sapiens, K562) was 1020 nM. For the same compound, the CC50 ([5]; Homo sapiens, K562, read-out: LC50 (the source's name)) was 8960 nM, the “Percent Growth” value ([5]; Log10 Concentration −4.0) was −70% and the “Percent Growth” value ([5]; Log10 Concentration −5.0) was −55%. For the same compound, the “Percent Growth” value ([5]; Log10 Concentration −6.0) was 51%, the “Percent Growth” value ([5]; Log10 Concentration −7.0) was 106% and the “Percent Growth” value ([5]; Log10 Concentration −8.0) was 98%. It also gave a TGI [6] of 2.96E−6, a GI50 ([6]; Homo sapiens) of 1440 nM and a CC50 [6, 13] of 6100 nM. For the same compound, the “Percent Growth” value ([6]; Log10 Concentration −4.0) was −78%, the “Percent Growth” value ([6]; Log10 Concentration −5.0) was −84% and the “Percent Growth” value ([6]; Log10 Concentration −6.0) was 75%. For the same compound, the “Percent Growth” value ([6]; Log10 Concentration −7.0) was 91%, the “Percent Growth” value ([6]; Log10 Concentration −8.0) was 98% and the TGI [7] was 3.32E−6. The GI50 ([7]; Homo sapiens) was 1810 nM, the CC50 [7, 13] was 6090 nM and the “Percent Growth” value ([7]; Log10 Concentration −4.0) was −93%. The “Percent Growth” value ([7]; Log10 Concentration −5.0) was −91%, the “Percent Growth” value ([7]; Log10 Concentration −6.0) was 99% and the “Percent Growth” value ([7]; Log10 Concentration −7.0) was 102%. For the same compound, the “Percent Growth” value ([7]; Log10 Concentration −8.0) was 96%, the TGI [8] was 2.86E−7 and the GI50 ([8]; Homo sapiens) was 138 nM. The CC50 [8, 13] was 594 nM, the “Percent Growth” value ([8]; Log10 Concentration −4.0) was −100% and the “Percent Growth” value ([8]; Log10 Concentration −5.0) was −100%. The “Percent Growth” value ([8]; Log10 Concentration −6.0) was −86%, the “Percent Growth” value ([8]; Log10 Concentration −7.0) was 72% and the “Percent Growth” value ([8]; Log10 Concentration −8.0) was 84%. For the same compound, the TGI [9] was 2.99E−6, the GI50 ([9]; Homo sapiens) was 1410 nM and the CC50 [9, 13] was 6310 nM. The “Percent Growth” value ([9]; Log10 Concentration −4.0) was −88%, the “Percent Growth” value ([9]; Log10 Concentration −5.0) was −81% and the “Percent Growth” value ([9]; Log10 Concentration −6.0) was 73%. For the same compound, the “Percent Growth” value ([9]; Log10 Concentration −7.0) was 92%, the “Percent Growth” value ([9]; Log10 Concentration −8.0) was 68% and the TGI [10] was 4.90E−7. The GI50 ([10]; Homo sapiens) was 225 nM, the CC50 [10, 13] was 1190 nM and the “Percent Growth” value ([10]; Log10 Concentration −4.0) was −100%. The “Percent Growth” value ([10]; Log10 Concentration −5.0) was −100%, the “Percent Growth” value ([10]; Log10 Concentration −6.0) was −46% and the “Percent Growth” value ([10]; Log10 Concentration −7.0) was 102%. The “Percent Growth” value ([10]; Log10 Concentration −8.0) was 100%, the TGI [11] was 2.98E−6 and the GI50 ([11]; Homo sapiens) was 1560 nM. The CC50 [11, 13] was 5710 nM, the “Percent Growth” value ([11]; Log10 Concentration −4.0) was −89% and the “Percent Growth” value ([11]; Log10 Concentration −5.0) was −93%. For the same compound, the “Percent Growth” value ([11]; Log10 Concentration −6.0) was 84%, the “Percent Growth” value ([11]; Log10 Concentration −7.0) was 83% and the “Percent Growth” value ([11]; Log10 Concentration −8.0) was 90%. For the same compound, the TGI [12] was 2.79E−6, the GI50 ([12]; Homo sapiens) was 1330 nM and the CC50 [12, 13] was 5870 nM. The “Percent Growth” value ([12]; Log10 Concentration −4.0) was −100%, the “Percent Growth” value ([12]; Log10 Concentration −5.0) was −86% and the “Percent Growth” value ([12]; Log10 Concentration −6.0) was 69%. The “Percent Growth” value ([12]; Log10 Concentration −7.0) was 62% and the “Percent Growth” value ([12]; Log10 Concentration −8.0) was 75%.
